Results from US9226916B2, “Pyrrolidine derivatives” (HOFFMANN-LA ROCHE INC., priority 2009, dated 2016).
Like-named read-outs stand apart in the source and are kept apart here. One block for each compound: values may come before it.

Molecular target: T1, recombinant human NK3 receptor (Homo sapiens, UniProt P29371)
T1 construct: expressed in transfected cells; host or cells: HEK293 cells, transient expression; membranes
T1 sequence (P29371 1-465): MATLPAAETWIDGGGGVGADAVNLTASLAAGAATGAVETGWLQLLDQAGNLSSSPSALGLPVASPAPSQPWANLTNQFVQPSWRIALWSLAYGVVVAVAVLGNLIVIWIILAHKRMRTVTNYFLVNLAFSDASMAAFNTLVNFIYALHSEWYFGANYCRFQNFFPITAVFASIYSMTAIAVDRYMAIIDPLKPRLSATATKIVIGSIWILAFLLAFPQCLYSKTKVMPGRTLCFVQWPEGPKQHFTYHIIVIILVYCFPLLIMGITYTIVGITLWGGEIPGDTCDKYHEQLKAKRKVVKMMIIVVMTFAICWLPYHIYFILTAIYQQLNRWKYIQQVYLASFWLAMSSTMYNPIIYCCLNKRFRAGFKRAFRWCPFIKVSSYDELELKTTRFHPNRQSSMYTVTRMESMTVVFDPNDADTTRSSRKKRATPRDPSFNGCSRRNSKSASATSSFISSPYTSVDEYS
Experiment: [3H]SR142801 competition binding assay

[1] = hNK-3 receptor affinity, membranes from HEK293 cells transiently expressing recombinant human NK3 receptor, [3H]SR142801, Cheng-Prussoff, read-out: Data Ki

Compound: CN(C(=O)O[C@H]1CC[C@H](C)CC1)[C@@H]1CN(C(=O)C2CCN(c3ccc(C#N)cn3)CC2)C[C@H]1c1ccc(Cl)cc1 [Example 221, [(3S,4R)-4-(4-Chloro-phenyl)-1-(5′-cyano-3,4,5,6-tetrahydro-2H-[1,2′]bipyridinyl-4-carbonyl)-pyrrolidin-3-yl]-methyl-carbamic acid 4-methyl-cyclohexyl ester]
Ki: 1 nM

Compound: CN(C(=O)Oc1ccc(S(C)(=O)=O)cc1)[C@@H]1CN(C(=O)C2CCN(c3ccc(C#N)cn3)CC2)C[C@H]1c1ccc(Cl)cc1 [Example 224, [(3S,4R)-4-(4-Chloro-phenyl)-1-(5′-cyano-3,4,5,6-tetrahydro-2H-[1,2′]bipyridinyl-4-carbonyl)-pyrrolidin-3-yl]-methyl-carbamic acid 4-methanesulfonyl-phenyl ester]
Ki: 22.8 nM

Compound: CN(C(=O)Oc1cccc(C#N)c1)[C@@H]1CN(C(=O)C2CCN(c3ccc(C#N)cn3)CC2)C[C@H]1c1ccc(Cl)cc1 [Example 225, [(3S,4R)-4-(4-Chloro-phenyl)-1-(5′-cyano-3,4,5,6-tetrahydro-2H-[1,2′]bipyridinyl-4-carbonyl)-pyrrolidin-3-yl]-methyl-carbamic acid 3-cyano-phenyl ester]
Ki: 11.2 nM

Compound: CC(OC(=O)N(C)[C@@H]1CN(C(=O)C2CCN(c3ccc(C#N)cn3)CC2)C[C@H]1c1ccc(Cl)cc1)c1ccc(F)cc1 (stereo partly drawn) [Example 226, [(3S,4R)-4-(4-Chloro-phenyl)-1-(5′-cyano-3,4,5,6-tetrahydro-2H-[1,2′]bipyridinyl-4-carbonyl)-pyrrolidin-3-yl]-methyl-carbamic acid 1-(4-fluoro-phenyl)-ethyl ester]
Ki: 79.2 nM

Compound: CN(C(=O)Oc1ccc(C#N)cc1)[C@@H]1CN(C(=O)C2CCN(c3ccc(C#N)cn3)CC2)C[C@H]1c1ccc(Cl)cc1 [Example 228, [(3S,4R)-4-(4-Chloro-phenyl)-1-(5′-cyano-3,4,5,6-tetrahydro-2H-[1,2′]bipyridinyl-4-carbonyl)-pyrrolidin-3-yl]-methyl-carbamic acid 4-cyano-phenyl ester]
Ki: 0.8 nM

Compound: Cc1ccccc1OC(=O)N(C)[C@@H]1CN(C(=O)C2CCN(c3ccc(C#N)cn3)CC2)C[C@H]1c1ccc(Cl)cc1 [Example 229, [(3S,4R)-4-(4-Chloro-phenyl)-1-(5′-cyano-3,4,5,6-tetrahydro-2H-[1,2′]bipyridinyl-4-carbonyl)-pyrrolidin-3-yl]-methyl-carbamic acid o-tolyl ester]
Ki: 16.8 nM

Compound: Cc1cccc(OC(=O)N(C)[C@@H]2CN(C(=O)C3CCN(c4ccc(C#N)cn4)CC3)C[C@H]2c2ccc(Cl)cc2)c1 [Example 230, [(3S,4R)-4-(4-Chloro-phenyl)-1-(5′-cyano-3,4,5,6-tetrahydro-2H-[1,2′]bipyridinyl-4-carbonyl)-pyrrolidin-3-yl]-methyl-carbamic acid m-tolyl ester]
Ki: 2.7 nM

Ki [1]: 5.7 nM
Compound: CN(C(=O)OCC1CCOCC1)[C@@H]1CN(C(=O)C2CCN(c3ccc(C#N)cn3)CC2)C[C@H]1c1ccc(Cl)cc1 [Example 231, [(3S,4R)-4-(4-Chloro-phenyl)-1-(5′-cyano-3,4,5,6-tetrahydro-2H-[1,2′]bipyridinyl-4-carbonyl)-pyrrolidin-3-yl]-methyl-carbamic acid tetrahydro-pyran-4-ylmethyl ester]

Compound: CN(C(=O)OCC1CCCO1)[C@@H]1CN(C(=O)C2CCN(c3ccc(C#N)cn3)CC2)C[C@H]1c1ccc(Cl)cc1 (stereo partly drawn) [Example 232, [(3S,4R)-4-(4-Chloro-phenyl)-1-(5′-cyano-3,4,5,6-tetrahydro-2H-[1,2′]bipyridinyl-4-carbonyl)-pyrrolidin-3-yl]-methyl-carbamic acid tetrahydro-furan-2-ylmethyl ester]
Ki: 21.8 nM

Compound: CN(C(=O)OCC1CCOC1)[C@@H]1CN(C(=O)C2CCN(c3ccc(C#N)cn3)CC2)C[C@H]1c1ccc(Cl)cc1 (stereo partly drawn) [Example 233, [(3S,4R)-4-(4-Chloro-phenyl)-1-(5′-cyano-3,4,5,6-tetrahydro-2H-[1,2′]bipyridinyl-4-carbonyl)-pyrrolidin-3-yl]-methyl-carbamic acid tetrahydro-furan-3-ylmethyl ester]
Ki: 6 nM

Compound: CCC(C)(C)OC(=O)N(C)[C@@H]1CN(C(=O)C2CCN(c3ccc(C#N)cn3)CC2)C[C@H]1c1ccc(Cl)cc1 [Example 234, [(3S,4R)-4-(4-Chloro-phenyl)-1-(5′-cyano-3,4,5,6-tetrahydro-2H-[1,2′]bipyridinyl-4-carbonyl)-pyrrolidin-3-yl]-methyl-carbamic acid 1,1-dimethyl-propyl ester]
Ki: 79.4 nM

Compound: CCC(OC(=O)N(C)[C@@H]1CN(C(=O)C2CCN(c3ccc(C#N)cn3)CC2)C[C@H]1c1ccc(Cl)cc1)c1ccc(F)cc1 (stereo partly drawn) [Example 236, [(3S,4R)-4-(4-Chloro-phenyl)-1-(5′-cyano-3,4,5,6-tetrahydro-2H-[1,2′]bipyridinyl-4-carbonyl)-pyrrolidin-3-yl]-methyl-carbamic acid 1-(4-fluoro-phenyl)-propyl ester]
Ki: 64.8 nM

Compound: CN(C(=O)Oc1ccc(C#N)cc1F)[C@@H]1CN(C(=O)C2CCN(c3ccc(C#N)cn3)CC2)C[C@H]1c1ccc(Cl)cc1 [Example 237, [(3S,4R)-4-(4-Chloro-phenyl)-1-(5′-cyano-3,4,5,6-tetrahydro-2H-[1,2′]bipyridinyl-4-carbonyl)-pyrrolidin-3-yl]-methyl-carbamic acid 4-cyano-2-fluoro-phenyl ester]
Ki: 0.4 nM

Compound: COC1CCC(OC(=O)N(C)[C@@H]2CN(C(=O)C3CCN(c4ccc(C#N)cn4)CC3)C[C@H]2c2ccc(Cl)cc2)CC1 (stereo partly drawn) [Example 238, [(3S,4R)-4-(4-Chloro-phenyl)-1-(5′-cyano-3,4,5,6-tetrahydro-2H-[1,2′]bipyridinyl-4-carbonyl)-pyrrolidin-3-yl]-methyl-carbamic acid 4-methoxy-cyclohexyl ester]
Ki: 48 nM

Compound: CN(C(=O)OC(c1ccc(F)cc1)C1CC1)[C@@H]1CN(C(=O)C2CCN(c3ccc(C#N)cn3)CC2)C[C@H]1c1ccc(Cl)cc1 (stereo partly drawn) [Example 239, [(3S,4R)-4-(4-Chloro-phenyl)-1-(5′-cyano-3,4,5,6-tetrahydro-2H-[1,2′]bipyridinyl-4-carbonyl)-pyrrolidin-3-yl]-methyl-carbamic acid cyclopropyl-(4-fluoro-phenyl)-methyl ester]
Ki: 61.6 nM

Compound: CN(C(=O)O[C@]1(C(F)(F)F)CC[C@@H](C)CC1)[C@@H]1CN(C(=O)C2CCN(c3ccc(C#N)cn3)CC2)C[C@H]1c1ccc(Cl)cc1 [Example 240, [(3S,4R)-4-(4-Chloro-phenyl)-1-(5′-cyano-3,4,5,6-tetrahydro-2H-[1,2′]bipyridinyl-4-carbonyl)-pyrrolidin-3-yl]-methyl-carbamic acid 4-methyl-1-trifluoromethyl-cyclohexyl ester]
Ki: 22.8 nM

Ki [1]: 2.7 nM
Compound: CN(C(=O)O[C@]1(C)CC[C@@H](C)CC1)[C@@H]1CN(C(=O)C2CCN(c3ccc(C#N)cn3)CC2)C[C@H]1c1ccc(Cl)cc1 [Example 242, [(3S,4R)-4-(4-Chloro-phenyl)-1-(5′-cyano-3,4,5,6-tetrahydro-2H-[1,2′]bipyridinyl-4-carbonyl)-pyrrolidin-3-yl]-methyl-carbamic acid 1,4-dimethyl-cyclohexyl ester]

Ki [1]: 47.2 nM
Compound: CN(C(=O)OC1(C)CCCC1)[C@@H]1CN(C(=O)C2CCN(c3ccc(C#N)cn3)CC2)C[C@H]1c1ccc(Cl)cc1 [Example 243, [(3S,4R)-4-(4-Chloro-phenyl)-1-(5′-cyano-3,4,5,6-tetrahydro-2H-[1,2′]bipyridinyl-4-carbonyl)-pyrrolidin-3-yl]-methyl-carbamic acid 1-methyl-cyclopentyl ester]

Compound: CN(C(=O)Oc1ccc(Cl)cn1)[C@@H]1CN(C(=O)C2CCN(c3ccc(C#N)cn3)CC2)C[C@H]1c1ccc(Cl)cc1 [Example 244, [(3S,4R)-4-(4-Chloro-phenyl)-1-(5′-cyano-3,4,5,6-tetrahydro-2H-[1,2′]bipyridinyl-4-carbonyl)-pyrrolidin-3-yl]-methyl-carbamic acid 5-chloro-pyridin-2-yl ester]
Ki: 20.9 nM

Compound: CN(C(=O)Oc1ccc(C#N)c(F)c1)[C@@H]1CN(C(=O)C2CCN(c3ccc(C#N)cn3)CC2)C[C@H]1c1ccc(Cl)cc1 [Example 245, [(3S,4R)-4-(4-Chloro-phenyl)-1-(5′-cyano-3,4,5,6-tetrahydro-2H-[1,2′]bipyridinyl-4-carbonyl)-pyrrolidin-3-yl]-methyl-carbamic acid 4-cyano-3-fluoro-phenyl ester]
Ki: 1.1 nM

Compound: CC(=O)N1CCC(C(=O)N2C[C@@H](N(C)C(=O)Oc3ccc(F)cc3)[C@H](c3ccc(Cl)cc3)C2)CC1 [Example 246, [(3S,4R)-1-(1-Acetyl-piperidine-4-carbonyl)-4-(4-chloro-phenyl)-pyrrolidin-3-yl]-methyl-carbamic acid 4-fluoro-phenyl ester]
Ki: 2.3 nM

Compound: CN(C(=O)Oc1ccc(F)cc1)[C@@H]1CN(C(=O)C2CCN(C(=O)C3CCC3)CC2)C[C@H]1c1ccc(Cl)cc1 [Example 247, [(3S,4R)-4-(4-Chloro-phenyl)-1-(1-cyclobutanecarbonyl-piperidine-4-carbonyl)-pyrrolidin-3-yl]-methyl-carbamic acid 4-fluoro-phenyl ester]
Ki: 0.9 nM

Compound: CN(C(=O)Oc1ccc(F)cc1)[C@@H]1CN(C(=O)C2CCN(C(=O)C3(C)COC3)CC2)C[C@H]1c1ccc(Cl)cc1 [Example 248, {(3S,4R)-4-(4-Chloro-phenyl)-1-[1-(3-methyl-oxetane-3-carbonyl)-piperidine-4-carbonyl]-pyrrolidin-3-yl}-methyl-carbamic acid 4-fluoro-phenyl ester]
Ki: 2.8 nM
